Test results taken from ChEMBL document CHEMBL1909536, “7-Oxopyrrolopyridine-derived DPP4 inhibitors-mitigation of CYP and hERG liabilities via introduction of polar functionalities in the active site” (Bioorg Med Chem Lett, 2011).
pIC50, pKi: −log10 of the molar value. Values joined by “and” are separate entries in the source; they are usually repeats but may differ in a detail not shown here. Equal values may be shown once.

What was measured:
[1] = biological target: T1, Cytochrome P450 3A4 (Homo sapiens, UniProt P08684); assay: Inhibition of CYP3A4 up to 40 uM; format: ADME
T1 sequence (P08684 whole entry): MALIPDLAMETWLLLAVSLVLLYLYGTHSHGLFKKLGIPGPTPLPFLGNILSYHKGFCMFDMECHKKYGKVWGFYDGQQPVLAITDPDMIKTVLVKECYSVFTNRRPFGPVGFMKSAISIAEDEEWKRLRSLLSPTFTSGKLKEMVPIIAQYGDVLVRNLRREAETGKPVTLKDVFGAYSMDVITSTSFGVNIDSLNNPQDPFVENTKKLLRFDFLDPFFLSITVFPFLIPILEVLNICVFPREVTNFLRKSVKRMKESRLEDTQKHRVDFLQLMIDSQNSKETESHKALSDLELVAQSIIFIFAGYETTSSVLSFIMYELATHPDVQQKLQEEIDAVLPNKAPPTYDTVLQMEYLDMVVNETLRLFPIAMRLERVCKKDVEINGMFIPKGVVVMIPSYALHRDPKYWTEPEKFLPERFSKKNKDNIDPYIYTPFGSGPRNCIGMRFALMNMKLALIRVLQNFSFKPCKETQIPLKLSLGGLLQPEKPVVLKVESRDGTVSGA

[2] = Oral availability in rat; format: ADME, organism-based; conditions: in vivo
[3] = biological target: hERG (KCNH2) (Homo sapiens, UniProt Q12809); assay: (§1) Inhibition of human ERG at 10 uM by patch clamp assay; conditions: INH
Sequence of hERG (KCNH2) (Q12809 whole entry): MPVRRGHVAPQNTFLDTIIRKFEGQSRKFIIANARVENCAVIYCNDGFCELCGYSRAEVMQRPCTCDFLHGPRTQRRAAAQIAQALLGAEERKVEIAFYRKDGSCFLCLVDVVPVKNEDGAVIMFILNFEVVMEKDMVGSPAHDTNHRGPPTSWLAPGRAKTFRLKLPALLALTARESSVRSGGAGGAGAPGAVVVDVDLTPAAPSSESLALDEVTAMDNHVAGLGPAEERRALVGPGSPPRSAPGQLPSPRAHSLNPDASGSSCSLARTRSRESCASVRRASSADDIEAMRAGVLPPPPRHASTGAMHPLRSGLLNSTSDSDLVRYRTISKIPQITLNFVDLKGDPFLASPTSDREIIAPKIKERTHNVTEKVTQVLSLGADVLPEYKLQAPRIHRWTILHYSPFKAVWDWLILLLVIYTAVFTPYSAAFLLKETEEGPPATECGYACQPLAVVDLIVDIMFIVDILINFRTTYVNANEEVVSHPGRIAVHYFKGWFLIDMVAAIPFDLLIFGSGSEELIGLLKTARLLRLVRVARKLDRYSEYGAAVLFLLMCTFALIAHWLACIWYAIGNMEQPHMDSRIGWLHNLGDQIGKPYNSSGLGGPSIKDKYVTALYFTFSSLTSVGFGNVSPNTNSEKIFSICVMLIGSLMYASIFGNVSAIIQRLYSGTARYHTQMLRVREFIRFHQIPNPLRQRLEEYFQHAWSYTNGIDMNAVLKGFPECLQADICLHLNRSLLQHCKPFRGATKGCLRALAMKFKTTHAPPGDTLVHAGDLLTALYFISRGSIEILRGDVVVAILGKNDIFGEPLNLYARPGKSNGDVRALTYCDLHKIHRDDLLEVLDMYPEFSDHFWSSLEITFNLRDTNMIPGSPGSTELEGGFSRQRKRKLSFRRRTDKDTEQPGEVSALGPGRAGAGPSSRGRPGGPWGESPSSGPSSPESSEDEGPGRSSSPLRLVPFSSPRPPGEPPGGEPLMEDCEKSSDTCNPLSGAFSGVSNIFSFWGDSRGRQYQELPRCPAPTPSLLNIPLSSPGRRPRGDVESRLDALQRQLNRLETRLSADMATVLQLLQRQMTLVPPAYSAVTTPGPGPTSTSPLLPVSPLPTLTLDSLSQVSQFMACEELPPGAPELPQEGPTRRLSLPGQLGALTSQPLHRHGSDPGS

[4] = Half life in rat; format: ADME, organism-based; conditions: in vivo
[5] = biological target: T1, Cytochrome P450 3A4; assay: Inhibition of CYP3A4 in presence of the substrate 7-bezyloxy-4-trifluoromethyl coumarin; format: ADME
[6] = biological target: T1, Cytochrome P450 3A4; assay: Inhibition of CYP3A4 in presence of the substrate 7-bezyloxy resorufin; format: ADME
[7] = biological target: Cytochrome P450 2C19 (Homo sapiens, UniProt P33261); assay: Inhibition of CYP2C19; format: ADME
Sequence of Cytochrome P450 2C19 (P33261 whole entry): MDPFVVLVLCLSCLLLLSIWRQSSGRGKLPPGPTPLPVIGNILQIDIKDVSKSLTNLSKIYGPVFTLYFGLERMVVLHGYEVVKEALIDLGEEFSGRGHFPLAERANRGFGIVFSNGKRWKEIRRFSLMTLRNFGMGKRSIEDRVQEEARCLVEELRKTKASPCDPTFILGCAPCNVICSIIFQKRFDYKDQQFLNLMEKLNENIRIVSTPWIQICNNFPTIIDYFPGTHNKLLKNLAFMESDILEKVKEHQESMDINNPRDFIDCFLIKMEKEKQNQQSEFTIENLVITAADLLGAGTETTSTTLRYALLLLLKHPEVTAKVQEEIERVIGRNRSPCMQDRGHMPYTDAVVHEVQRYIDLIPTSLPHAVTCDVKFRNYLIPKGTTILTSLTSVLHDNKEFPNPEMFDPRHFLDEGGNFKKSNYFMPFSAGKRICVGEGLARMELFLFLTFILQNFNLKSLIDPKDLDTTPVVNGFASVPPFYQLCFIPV

[8] = Cmax in rat at 10 umol/kg; format: ADME, organism-based; parameters: dose 10 umol/kg; conditions: in vivo
[9] = biological target: T2, Nuclear receptor subfamily 1 group I member 2 (Homo sapiens, UniProt O75469); assay: Inhibition of PXR
T2 sequence (O75469 whole entry): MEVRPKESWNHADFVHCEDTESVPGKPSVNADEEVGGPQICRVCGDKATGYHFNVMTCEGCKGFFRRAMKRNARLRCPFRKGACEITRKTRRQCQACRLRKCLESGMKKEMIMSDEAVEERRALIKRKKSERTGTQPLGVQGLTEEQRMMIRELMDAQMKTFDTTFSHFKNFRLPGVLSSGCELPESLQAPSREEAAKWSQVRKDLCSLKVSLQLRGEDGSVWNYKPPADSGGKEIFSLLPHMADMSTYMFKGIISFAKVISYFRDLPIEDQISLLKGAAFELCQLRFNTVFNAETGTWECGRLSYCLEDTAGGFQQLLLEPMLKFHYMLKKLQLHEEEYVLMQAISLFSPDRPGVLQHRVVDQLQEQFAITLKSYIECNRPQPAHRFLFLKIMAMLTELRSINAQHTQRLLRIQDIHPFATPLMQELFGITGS

[10] = biological target: T3, Voltage-gated inwardly rectifying potassium channel KCNH2 (Homo sapiens, UniProt Q12809)
T3 sequence (Q12809 whole entry): as the sequence (Q12809 whole entry) above

[11] = biological target: Dipeptidyl peptidase 9 (Homo sapiens, UniProt Q86TI2); assay: Inhibition of DPP9
Sequence of Dipeptidyl peptidase 9 (Q86TI2 whole entry): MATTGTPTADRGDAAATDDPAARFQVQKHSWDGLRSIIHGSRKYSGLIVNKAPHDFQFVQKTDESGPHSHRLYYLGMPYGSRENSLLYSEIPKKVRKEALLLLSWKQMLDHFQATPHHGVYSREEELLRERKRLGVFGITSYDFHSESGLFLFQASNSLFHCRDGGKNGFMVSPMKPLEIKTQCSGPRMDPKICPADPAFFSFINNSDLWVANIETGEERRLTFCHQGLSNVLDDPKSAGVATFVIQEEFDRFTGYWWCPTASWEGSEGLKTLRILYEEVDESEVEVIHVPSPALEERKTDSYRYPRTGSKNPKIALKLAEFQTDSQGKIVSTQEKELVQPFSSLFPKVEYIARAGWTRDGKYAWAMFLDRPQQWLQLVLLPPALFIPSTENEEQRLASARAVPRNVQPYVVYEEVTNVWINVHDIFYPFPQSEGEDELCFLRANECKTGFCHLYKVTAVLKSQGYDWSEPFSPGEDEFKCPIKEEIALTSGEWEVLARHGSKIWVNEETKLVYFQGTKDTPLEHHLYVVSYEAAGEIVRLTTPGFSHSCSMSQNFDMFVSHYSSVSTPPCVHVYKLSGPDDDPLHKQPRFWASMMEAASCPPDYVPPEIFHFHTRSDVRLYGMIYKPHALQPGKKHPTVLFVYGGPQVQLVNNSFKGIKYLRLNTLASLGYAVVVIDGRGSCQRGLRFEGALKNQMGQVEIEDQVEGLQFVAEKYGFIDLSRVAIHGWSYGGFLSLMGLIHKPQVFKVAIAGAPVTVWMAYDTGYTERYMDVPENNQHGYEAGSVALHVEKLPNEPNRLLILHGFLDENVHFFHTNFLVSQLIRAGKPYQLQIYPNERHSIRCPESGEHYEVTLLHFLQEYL

[12] = biological target: T1, Cytochrome P450 3A4; assay: Inhibition of CYP3A4; format: ADME
[13] = biological target: Dipeptidyl peptidase 8 (Homo sapiens, UniProt Q6V1X1); assay: Inhibition of DPP8
[14] = biological target: T3, Voltage-gated inwardly rectifying potassium channel KCNH2; assay: as §1; conditions: 10 µM
[15] = biological target: Dipeptidyl peptidase 4 (Homo sapiens, UniProt P27487); assay: Inhibition of DPP4
Sequence of Dipeptidyl peptidase 4 (P27487 whole entry): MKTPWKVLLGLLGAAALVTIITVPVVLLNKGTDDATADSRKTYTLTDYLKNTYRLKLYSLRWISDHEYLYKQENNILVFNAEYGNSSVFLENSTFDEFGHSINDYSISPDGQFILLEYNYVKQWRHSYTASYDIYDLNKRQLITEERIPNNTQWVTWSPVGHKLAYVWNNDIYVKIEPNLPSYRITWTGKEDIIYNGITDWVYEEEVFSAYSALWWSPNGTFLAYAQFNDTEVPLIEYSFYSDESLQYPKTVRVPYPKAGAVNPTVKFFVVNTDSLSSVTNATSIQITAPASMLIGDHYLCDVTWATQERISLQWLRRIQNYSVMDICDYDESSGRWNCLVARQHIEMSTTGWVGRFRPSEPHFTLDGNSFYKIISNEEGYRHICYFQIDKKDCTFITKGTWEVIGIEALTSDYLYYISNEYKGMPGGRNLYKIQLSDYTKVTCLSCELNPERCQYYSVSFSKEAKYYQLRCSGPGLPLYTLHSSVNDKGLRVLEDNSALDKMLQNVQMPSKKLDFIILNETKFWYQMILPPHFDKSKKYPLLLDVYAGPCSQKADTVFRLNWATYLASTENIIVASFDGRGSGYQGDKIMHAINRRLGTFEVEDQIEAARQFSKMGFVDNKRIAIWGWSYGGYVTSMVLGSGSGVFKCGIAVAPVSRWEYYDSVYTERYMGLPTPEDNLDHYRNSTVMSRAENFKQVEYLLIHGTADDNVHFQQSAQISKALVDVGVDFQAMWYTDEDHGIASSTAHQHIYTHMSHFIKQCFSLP

[16] = Tmax in rat at 10 umol/kg; format: ADME, organism-based; conditions: in vivo
[17] = biological target: T3, Voltage-gated inwardly rectifying potassium channel KCNH2; assay: Inhibition of human ERG by flux assay

## Cc1nc2c(c(-c3ccc(Cl)cc3Cl)c1CN)CN(CC(N)=O)C2=O (single isomer, unassigned; atropisomer)
[1]
  pIC50: < 4.77

## Cc1nc2c(c(-c3ccc(Cl)cc3Cl)c1CN)CN(c1ccccc1)C2=O (single isomer, unassigned; atropisomer)
[2]
  bioavailability: 78%
[3]
  inhibition at 10 µM: 69%
[4]
  half-life: 4.4 h
[5]
  pIC50: 5.92

## COc1ccc(N2Cc3c(nc(C)c(CN)c3-c3ccc(Cl)cc3Cl)C2=O)cc1 (single isomer, unassigned; atropisomer)
[3]
  inhibition at 10 µM: 67%
[5]
  pIC50: 5.60

## Cc1nc2c(c(-c3ccc(Cl)cc3Cl)c1CN)CN(Cc1ccccc1)C2=O (single isomer, unassigned; atropisomer)
[6]
  pIC50: 5.85
[7]
  pIC50: 4.82
[8]
  Cmax: 500 nM
[5]
  pIC50: 5.55
[9]
  EC20: 470 nM
  EC60: 1400 nM

## Cc1nc2c(c(-c3ccc(Cl)cc3Cl)c1CN)CN(CC(=O)N1CCN(S(C)(=O)=O)CC1)C2=O (single isomer, unassigned; atropisomer)
[1]
  pIC50: < 4.77

## Cc1ccc(N2Cc3c(nc(C)c(CN)c3-c3ccc(Cl)cc3Cl)C2=O)cc1 (single isomer, unassigned; atropisomer)
[3]
  inhibition at 10 µM: 84%
[5]
  pIC50: 6.57

## Cc1nc2c(c(-c3ccc(Cl)cc3Cl)c1CN)CN(CC(=O)NCc1cccnc1)C2=O
[1]
  pIC50: 5.15
[10]
  pIC50: 4.10

## Cc1nc2c(c(-c3ccc(Cl)cc3Cl)c1CN)CN(CC(=O)N1CCOCC1)C2=O (single isomer, unassigned; atropisomer)
[1]
  pIC50: < 4.77

## Cc1nc2c(c(-c3ccc(Cl)cc3Cl)c1CN)CN(CC(=O)N1CCC(C(N)=O)CC1)C2=O (single isomer, unassigned; atropisomer)
[1]
  pIC50: < 4.77

## Cc1nc2c(c(-c3ccc(Cl)cc3Cl)c1CN)CN(CC(=O)N(C)C)C2=O (single isomer, unassigned; atropisomer)
[1]
  pIC50: < 4.77

## Cc1nc2c(c(-c3ccc(Cl)cc3Cl)c1CN)CNC2=O (single isomer, unassigned; atropisomer)
[11]
  pKi: < 4.52
[12]
  inhibition (INH): Not Active
[3]
  inhibition at 10 µM: 68%
[13]
  pKi: < 4.52
[5]
  pIC50: < 4.40

## CC(=O)N1CCN(C(=O)CN2Cc3c(nc(C)c(CN)c3-c3ccc(Cl)cc3Cl)C2=O)CC1
[1]
  pIC50: < 4.77

## Cc1nc2c(c(-c3ccc(Cl)cc3Cl)c1CN)CN(c1ccc(Cl)cc1)C2=O (single isomer, unassigned; atropisomer)
[3]
  inhibition at 10 µM: 82%
[5]
  pIC50: 6.41

## Cc1nc2c(c(-c3ccc(Cl)cc3Cl)c1CN)CN(CC(=O)N1CCCC1)C2=O (single isomer, unassigned; atropisomer)
[1]
  pIC50: < 4.77

## Cc1nc2c(c(-c3ccc(Cl)cc3Cl)c1CN)CN(Cc1ccccc1)C2
[6]
  pIC50: 6.47
[11]
  pKi: < 4.52
[3]
  inhibition at 10 µM: 67%
[7]
  pIC50: 6.47
[8]
  Cmax: 76 nM
[13]
  pKi: < 4.52
[5]
  pIC50: 6.11
[9]
  EC20: 1100 nM
  EC60: 3300 nM

## COc1ccccc1N1Cc2c(nc(C)c(CN)c2-c2ccc(Cl)cc2Cl)C1=O (atropisomer R)
[3]
  inhibition at 10 µM: 63%
[14]
  INH: 67% and 68%
[5]
  pIC50: 5.82 and 5.89 and 5.66

## COc1cc2c(cc1OC)-c1nc(N)c(CN)c(-c3ccc(Cl)cc3Cl)c1C2
[15]
  pIC50: 8.15

## Cc1nc2c(c(-c3ccc(Cl)cc3Cl)c1CN)CN(CC(=O)Nc1ccnn1C)C2=O
[1]
  pIC50: < 4.77

## Cc1nc2c(c(-c3ccc(Cl)cc3Cl)c1CN)CN(CC(=O)O)C2=O (single isomer, unassigned; atropisomer)
[5]
  pIC50: < 4.40

## Cc1nc2c(c(-c3ccc(Cl)cc3Cl)c1CN)CN(c1ccc(F)cc1)C2=O (single isomer, unassigned; atropisomer)
[3]
  inhibition at 10 µM: 92%
[5]
  pIC50: 5.85

## COCCN1Cc2c(nc(C)c(CN)c2-c2ccc(Cl)cc2Cl)C1=O (single isomer, unassigned; atropisomer)
[11]
  pKi: < 4.52
[5]
  pIC50: 4.66

## Cc1nc2c(c(-c3ccc(Cl)cc3Cl)c1CN)CN(C)C2=O (single isomer, unassigned; atropisomer)
[15]
  pKi: 7.54
[13]
  pKi: < 4.52
[5]
  pIC50: < 4.40

## COC(=O)CN1Cc2c(nc(C)c(CN)c2-c2ccc(Cl)cc2Cl)C1=O (single isomer, unassigned; atropisomer)
[5]
  pIC50: 4.77

## CNC(=O)CN1Cc2c(nc(C)c(CN)c2-c2ccc(Cl)cc2Cl)C1=O (single isomer, unassigned; atropisomer)
[1]
  pIC50: < 4.77
[16]
  Tmax: 0.417 h
[8]
  Cmax: 32 nM
[9]
  EC20: > 50000 nM
  EC60: > 50000 nM

## Cc1nc2c(c(-c3ccc(Cl)cc3Cl)c1CN)CN(CC(=O)N1CCN(C)CC1)C2=O (atropisomer, axis not shown)
[11]
  pKi: < 5.00
[15]
  pKi: 9.17
[1]
  pIC50: < 4.77

## Cc1nc2c(c(-c3ccc(Cl)cc3Cl)c1CN)CN(c1ccc(C#N)cc1)C2=O (single isomer, unassigned; atropisomer)
[3]
  inhibition at 10 µM: 97%
[5]
  pIC50: 6.17

## NCc1c(-c2ccc(Cl)cc2Cl)cc(-c2ccccc2)nc1N
[15]
  pIC50: 6.04

## CCN(CC)C(=O)CN1Cc2c(nc(C)c(CN)c2-c2ccc(Cl)cc2Cl)C1=O
[1]
  pIC50: < 4.77

## Cc1nc2cn(Cc3ccccc3)cc2c(-c2ccc(Cl)cc2Cl)c1CN
[6]
  pIC50: 6.14
[7]
  pIC50: 6.02
[17]
  pIC50: 4.85
[5]
  pIC50: 5.96
[9]
  EC20: 1900 nM
  EC60: > 5600 nM

## Cc1nc2c(c(-c3ccc(Cl)cc3Cl)c1CN)CN(CCO)C2=O (single isomer, unassigned; atropisomer)
[11]
  pKi: < 4.52
[15]
  pKi: 8.05
[13]
  pKi: < 4.52
[5]
  pIC50: < 4.40
